Results from ChEMBL document CHEMBL1130363, “Design and synthesis of hapten to induce phospholipase A2-like catalytic antibody” (Bioorg Med Chem Lett, 1997).

Target: T1, Lysosomal phospholipase A and acyltransferase (Homo sapiens, UniProt Q8NCC3)
T1 sequence (Q8NCC3 whole entry): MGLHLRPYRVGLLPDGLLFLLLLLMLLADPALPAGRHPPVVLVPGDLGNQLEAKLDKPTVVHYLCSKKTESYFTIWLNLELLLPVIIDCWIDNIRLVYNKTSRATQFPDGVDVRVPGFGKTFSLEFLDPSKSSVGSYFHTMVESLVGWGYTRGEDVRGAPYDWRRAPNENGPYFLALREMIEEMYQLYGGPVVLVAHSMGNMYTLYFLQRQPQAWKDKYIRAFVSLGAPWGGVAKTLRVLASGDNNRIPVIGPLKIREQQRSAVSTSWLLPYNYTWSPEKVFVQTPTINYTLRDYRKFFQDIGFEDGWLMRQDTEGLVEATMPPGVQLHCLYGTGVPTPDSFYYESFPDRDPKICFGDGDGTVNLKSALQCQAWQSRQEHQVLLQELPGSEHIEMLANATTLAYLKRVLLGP
Assay: Inhibitory activity against phospholipase A2 enzyme

IC50: 9.75 mM
SMILES: CCCCCCCCCCP(=O)(O)OC(COCCCCCCCCCC(=O)OC)COP(=O)([O-])OCC[N+](C)(C)C (stereo unspecified) [ESTER OF PHOSPHOLIPID]
